Source: patent US7601744B2, “Benzothiadiazolylphenylalkylamine derivatives and methods of their use” (Wyeth, priority 2005, dated 2009)
Counter-ions that a name gives are not always drawn.

Biological target: T1, hNET (Homo sapiens, UniProt P23975)
T1 construct: expressed in transfected cells
Test: Norepinephrine (NE) uptake assay in MDCK-Net6 cells
Assay type: cell-based
Settings: [3H]NE uptake
Procedure: MDCK-Net6 cells, stably transfected with human hNET (Pacholczyk, T., R. D. Blakely, and S. G. Amara, Nature, 1991, 350(6316): p. 350-4) were cultured in growth medium containing high glucose DMEM (Gibco, Cat. No. 11995), 10% FBS (dialyzed, heat-inactivated, US Bio-Technologies, Lot FBD1129HI) and 500 µg/ml G418 (Gibco, Cat. No. 10131). Cells were plated at 300,000/T75 flask and cells were split twice weekly. The JAR cell line (human placental choriocarcinoma) was purchased from ATCC (Cat. No. HTB-144). The cells were cultured in growth medium containing RPMI 1640 (Gibco, Cat. No. 72400), 10% FBS (Irvine, Cat. No. 3000), 1% sodium pyruvate (Gibco, Cat. No. 1136) and 0.25% glucose. Cells were plated at 250,000 cells/T75 flask and split twice weekly. For all assays, cells were plated in Wallac 96-well sterile plates (PerkinElmer, Cat. No. 3983498)
On day 1, cells were plated at 3,000 cells/well in growth medium and maintained in a cell incubator (37° C., 5% CO2). On day 2, growth medium was replaced with 200 μl of assay buffer (25 mM HEPES; 120 mM NaCl; 5 mM KCl; 2.5 mM CaCl2; 1.2 mM MgSO4; 2 mg/ml glucose (pH 7.4, 37° C.)) containing 0.2 mg/ml ascorbic acid and 10 μM pargyline. […] The plates were counted in a Wallac Microbeta counter (PerkinElmer) to collect the raw cpm data. […]

T1 sequence (P23975 whole entry): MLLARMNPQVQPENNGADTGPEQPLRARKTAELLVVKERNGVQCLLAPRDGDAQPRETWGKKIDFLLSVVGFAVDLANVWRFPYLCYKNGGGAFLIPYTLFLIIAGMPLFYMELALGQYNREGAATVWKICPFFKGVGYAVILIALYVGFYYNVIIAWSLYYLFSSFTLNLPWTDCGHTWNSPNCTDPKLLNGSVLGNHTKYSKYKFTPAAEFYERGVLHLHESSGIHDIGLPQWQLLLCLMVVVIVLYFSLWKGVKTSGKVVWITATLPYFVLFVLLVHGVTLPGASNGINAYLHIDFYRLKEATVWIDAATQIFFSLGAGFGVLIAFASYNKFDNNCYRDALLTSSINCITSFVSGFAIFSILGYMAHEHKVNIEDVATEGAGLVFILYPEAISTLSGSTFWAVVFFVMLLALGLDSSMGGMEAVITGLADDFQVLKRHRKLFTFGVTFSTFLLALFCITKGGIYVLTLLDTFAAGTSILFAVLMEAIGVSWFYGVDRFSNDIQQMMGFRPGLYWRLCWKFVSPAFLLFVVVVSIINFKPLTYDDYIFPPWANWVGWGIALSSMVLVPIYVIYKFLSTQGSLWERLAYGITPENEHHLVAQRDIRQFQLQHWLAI

CNCC[C@@H](c1ccccc1)N1c2ccccc2N(C)S1(=O)=O [Example 5, (3S)-N-methyl-3-(3-methyl-2,2-dioxido-2,1,3-benzothiadiazol-1(3H)-yl)-3-phenylpropan-1-amine hydrochloride]
inhibition at 6 µM: 33%
